Entries after “also recorded” stand apart in the source; their conditions may differ.
Tests used:
[1] = tested on: fresh human whole blood; experiment: Release of Interleukin-6 from fresh human whole blood (ELISA); type: cell-based; design: Concentration of IL-6: unit of the concentration uncertain; conditions: for Concentration of IL-6: 24 hours, n = 5
Procedure: It was the goal of this study to determine the pro-inflammatory signalling capacity of the AP301 peptide. Whole blood cultures were used and the secretion of interleukin-6 (IL-6), a very sensitive marker for pro-inflammatory stimulation, was quantified by ELISA.
• Test system 25 ml of freshly taken heparinized blood from 5 healthy volunteers (HV) was used in the assays. […]
Whole blood (WB) cultures were done by pipetting 1 ml of WB into wells of 24 well plates. In each experiment unstimulated and control-stimulated cultures were included.
If possible the substances and stimulants to be investigated were always added in an identical volume to each well of a given experiment, not greater than 10% of the total volume contained in a well. Unstimulated controls received PBS. Volume adjustments and dilutions for different treatments were also done with PBS.
The content of each well was mixed and the plates incubated at 37° C. and 5% CO2 for 24 hours. After incubation the content of each well was transferred to a fresh 1.5 ml microtube and centrifuged at 8000-9000×g for 15 minutes. The supernatant of each sample was transferred individually to two 1.5 ml microtubes and kept at −20° C. until use.
Interleukin-6 was quantified by a specific ELISA (Human IL-6 ELISA Set, BD Biosciences, Cat. No. 555220) employing an anti-human IL-6 antibody as capture antibody, a biotinylated anti-human IL-6 detection antibody, avidin-horseradish peroxidase conjugate as enzyme reagent, and recombinant IL-6 as standard. Absorbance measurement was performed at 450 nm using the Packard FusionReader.
The results for each plate were stored and evaluated using the FusionDataAnalysis software. […]

[2] = tested on: STZ-treated rats; conditions: rat, in vivo
[3] = tested on: perfused rat hearts; experiment: Cardiac permeability by BSA-FITC perfusion (Langendorff method) of hearts from STZ-treated rats; type: in vivo; conditions: 125 μg/rat over 4 wks i.p.
Procedure: Following the same protocol as above, hearts from Ctrl, STZ-treated and TIP/STZ treated rats were isolated after 4 wks. The hearts were perfused using the Langendorff method with BSA-FITC (Di Napoli et al., Nitric Oxide 16 (2007), 228-236). Hearts were subsequently frozen in liquid nitrogen and slices were cut with a microtome. Subsequently, fluorescence was assessed in 4 slices of each heart and cumulative fluorescence responses were recorded.

[4] = tested on: U46619-contracted septal coronary arteries; experiment: Acetylcholine-induced vasorelaxation of septal coronary arteries from STZ-induced diabetic rats; type: in vivo, rat; conditions: TIP peptide 125 μg i.p. every three days for four weeks, vs STZ group, n=3
From the text: and tested for their ability to relax in response to progressive concentrations of acetylcholine. The vasorelaxant responses are expressed as percent of maximal control relaxation.

SMILES: C[C@@H]1NC(=O)CNC(=O)[C@H](CCC(=O)O)NC(=O)[C@@H]2CCCN2C(=O)[C@H]([C@@H](C)O)NC(=O)[C@H](CCC(=O)O)NC(=O)[C@H](CCCNC(=N)N)NC(=O)[C@H](CCC(N)=O)NC(=O)CNC(=O)[C@@H](N)CSSC[C@@H](C(=O)O)NC(=O)[C@H](Cc2ccc(O)cc2)NC(=O)[C@H](Cc2c[nH]c3ccccc23)NC(=O)[C@@H]2CCCN2C(=O)[C@H](CCCCN)NC(=O)[C@H](C)NC(=O)[C@H](CCC(=O)O)NC1=O [AP301, (NH2) Cys-Gly-Gln-Arg-Glu-Thr-Pro-Glu-Gly-Ala-Glu-Ala-Lys-Pro-Trp-Tyr-Cys (COOH)]
- Concentration of IL-6 ([1]; concentration 1 ng/ml): less than 0.5 pg/ml
- Concentration of IL-6 ([1]; concentration 3 ng/ml): less than 0.5 pg/ml
- Concentration of IL-6 ([1]; concentration 1 (unit uncertain)): less than 0.5 pg/ml
- Concentration of IL-6 ([1]; concentration 10 (unit uncertain)): less than 0.5 pg/ml
- IL-6 secretion (pro-inflammatory response) ([1]; whole blood cultures from five healthy donors, all concentrations tested (10 μg/ml to 1 ng/ml)): did not induce any detectable level of IL-6 secretion; also recorded: did not induce a pro-inflammatory response
- weight [2]: increased weight loss
- cardiac permeability (Albumin-FITC incorporation) [3]: significantly inhibits cardiac hyperpermeability
- cardiac permeability (Albumin-FITC incorporation) ([3]; listed as TIP peptide): inhibits STZ-associated cardiac permeability
- acetylcholine-induced vasorelaxation response in septal coronary arteries [4]: significantly improved the vasorelaxation response

Source: patent US9359419B2, “Treatment of vascular complications of diabetes” (priority 2010, dated 2016)
